In patent publication US10202361B2, “Pyridazinones as herbicides” (E I DU PONT DE NEMOURS AND COMPANY, priority 2014, dated 2019):
Like-named read-outs stand apart in the source and are kept apart here.

Key:
Type in all cases: in vivo
[1] = test system: barnyardgrass (Echinochloa crus-galli); experiment: Test B flooded paddy test; conditions: Echinochloa crus-galli, 312 h; Flood, 125 g ai/ha; scale of 0 to 100, 0 is no effect, 100 is complete control; 13 to 15 d; read-out: Plant response rating, Barnyardgrass
In short: (§1)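 2-leaf plants; pots flooded 3 cm over soil, compound dosed into floodwater, depth kept constant. Greenhouse, 13–15 d. Visual rating vs controls, 0 (no effect) to 100 (complete control); dash = not tested.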

[2] = test system: ducksalad (Heteranthera limosa); experiment: Test B flooded paddy test; conditions: Heteranthera limosa, 312 h; Flood, 125 g ai/ha; scale of 0 to 100, 0 is no effect, 100 is complete control; 13 to 15 d; read-out: Plant response rating, Ducksalad
In short: as §1

rice (Oryza sativa) = experiment: Test B flooded paddy test; conditions: Oryza sativa, 312 h; Flood, 125 g ai/ha; scale of 0 to 100, 0 is no effect, 100 is complete control; 13 to 15 d; read-out: Plant response rating, Rice
In short: as §1

[3] = test system: sedge, umbrella (small-flower umbrella sedge, Cyperus difformis); experiment: Test B flooded paddy test; conditions: Cyperus difformis, 312 h; Flood, 125 g ai/ha; scale of 0 to 100, 0 is no effect, 100 is complete control; 13 to 15 d; read-out: Plant response rating, Sedge, Umbrella
In short: as §1

[4] = test system: crabgrass, Large (large crabgrass, Digitaria sanguinalis); experiment: Test C pre-/postemergence greenhouse herbicide test; conditions: Digitaria sanguinalis, Crabgrass, Large, read-out: Plant response rating; for pest or weed control at 31 g/ha: 31 g ai/ha; for pest or weed control at 62 g/ha: 62 g ai/ha; for pest or weed control at 125 g/ha: 125 g ai/ha; for pest or weed control at 250 g/ha: 250 g ai/ha
In short: (§2)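 Plant response is scored on a 0–100 scale, where 100 means complete control, by visual comparison with controls 13 to 15 d after greenhouse treatment. Applications are made pre- and postemergence using a surfactant-containing, non-phytotoxic solvent formulation.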

[5] = test system: johnsongrass (Sorghum halepense); experiment: as above; conditions: Sorghum halepense, Johnsongrass, read-out: Plant response rating; for pest or weed control at 31 g/ha: 31 g ai/ha; for pest or weed control at 62 g/ha: 62 g ai/ha; for pest or weed control at 125 g/ha: 125 g ai/ha; for pest or weed control at 250 g/ha: 250 g ai/ha
In short: as §2

[6] = test system: oilseed rape (Brassica napus); experiment: as above; conditions: Oilseed Rape
In short: as §2

[7] = test system: pigweed (Amaranthus retroflexus); experiment: as above; conditions: Amaranthus retroflexus, Pigweed, read-out: Plant response rating; for pest or weed control at 62 g/ha: 62 g ai/ha; for pest or weed control at 125 g/ha: 125 g ai/ha; for pest or weed control at 250 g/ha: 250 g ai/ha
In short: as §2

[8] = test system: ragweed (common ragweed, Ambrosia elatior); experiment: as above; conditions: Ambrosia artemisiifolia, Ragweed, read-out: Plant response rating; for pest or weed control at 31 g/ha: 31 g ai/ha; for pest or weed control at 62 g/ha: 62 g ai/ha; for pest or weed control at 125 g/ha: 125 g ai/ha; for pest or weed control at 250 g/ha: 250 g ai/ha
In short: as §2

[9] = test system: wheat (winter wheat, Triticum aestivum); experiment: as above; conditions: Triticum aestivum, Wheat, read-out: Plant response rating; for plant injury at 62 g/ha: 62 g ai/ha; for plant injury at 125 g/ha: 125 g ai/ha; for plant injury at 250 g/ha: 250 g ai/ha
In short: as §2

[10] = test system: chickweed (common chickweed, Stellaria media); experiment: Test C postemergence greenhouse herbicide test
[11] = test system: surinam grass (Brachiaria decumbens); experiment: Test E pre-/postemergence greenhouse herbicide test; conditions: Preemergence, scale 0 to 100

SMILES: COc1cc(=O)n(-c2ccc(F)cc2)nc1Cc1ccnc(C(F)(F)F)c1 [Compound 17, 2-(4-fluorophenyl)-5-methoxy-6-[[2-(trifluoromethyl)-4-pyridinyl]methyl]-3 (2H)-pyridazinone]
- pest or weed control at 125 g/ha [1]: 90%
- pest or weed control at 125 g/ha [2]: 90%
- plant injury at 125 g/ha (rice (Oryza sativa)): 70%
- pest or weed control at 125 g/ha [3]: 90%
- pest or weed control at 31 g/ha ([4]; post-emergence, Postemergence): 10%
- pest or weed control at 62 g/ha ([4]; post-emergence, Postemergence): 10%
- pest or weed control at 125 g/ha ([4]; post-emergence, Postemergence): 15%
- pest or weed control at 250 g/ha ([4]; post-emergence, Postemergence): 40%
- pest or weed control at 31 g/ha ([4]; pre-emergence, Preemergence): 100%
- pest or weed control at 62 g/ha ([4]; pre-emergence, Preemergence): 100%
- pest or weed control at 125 g/ha ([4]; pre-emergence, Preemergence): 100%
- pest or weed control at 250 g/ha ([4]; pre-emergence, Preemergence): 100%
- pest or weed control at 31 g/ha ([5]; post-emergence, Postemergence): 5%
- pest or weed control at 62 g/ha ([5]; post-emergence, Postemergence): 5%
- pest or weed control at 125 g/ha ([5]; post-emergence, Postemergence): 5%
- pest or weed control at 250 g/ha ([5]; post-emergence, Postemergence): 65%
- pest or weed control at 31 g/ha ([5]; pre-emergence, Preemergence): 70%
- pest or weed control at 62 g/ha ([5]; pre-emergence, Preemergence): 95%
- pest or weed control at 125 g/ha ([5]; pre-emergence, Preemergence): 98%
- pest or weed control at 250 g/ha ([5]; pre-emergence, Preemergence): 100%
- Plant response rating ([6]; Postemergence, 31 g ai/ha): 5
- Plant response rating ([6]; Postemergence, 62 g ai/ha): 20
- Plant response rating ([6]; Postemergence, 125 g ai/ha): 25
- Plant response rating ([6]; Preemergence, 31 g ai/ha): 50
- Plant response rating ([6]; Preemergence, 62 g ai/ha): 100
- Plant response rating ([6]; Preemergence, 125 g ai/ha): 100
- Plant response rating ([6]; Preemergence, 250 g ai/ha): 100
- pest or weed control at 62 g/ha ([7]; post-emergence, Postemergence): 60%
- pest or weed control at 125 g/ha ([7]; post-emergence, Postemergence): 60%
- pest or weed control at 250 g/ha ([7]; post-emergence, Postemergence): 70%
- pest or weed control at 31 g/ha ([7]; pre-emergence, Preemergence, 31 g ai/ha): 100%
- pest or weed control at 62 g/ha ([7]; pre-emergence, Preemergence): 100%
- pest or weed control at 125 g/ha ([7]; pre-emergence, Preemergence): 100%
- pest or weed control at 250 g/ha ([7]; pre-emergence, Preemergence): 100%
- pest or weed control at 31 g/ha ([8]; post-emergence, Postemergence): 40%
- pest or weed control at 62 g/ha ([8]; post-emergence, Postemergence): 70%
- pest or weed control at 125 g/ha ([8]; post-emergence, Postemergence): 80%
- pest or weed control at 250 g/ha ([8]; post-emergence, Postemergence): 85%
- pest or weed control at 31 g/ha ([8]; pre-emergence, Preemergence): 35%
- pest or weed control at 62 g/ha ([8]; pre-emergence, Preemergence): 65%
- pest or weed control at 125 g/ha ([8]; pre-emergence, Preemergence): 80%
- pest or weed control at 250 g/ha ([8]; pre-emergence, Preemergence): 98%
- plant injury at 31 g/ha ([9]; post-emergence, Postemergence, 31 g ai/ha): 5%
- plant injury at 62 g/ha ([9]; post-emergence, Postemergence): 5%
- plant injury at 125 g/ha ([9]; post-emergence, Postemergence): 5%
- plant injury at 250 g/ha ([9]; post-emergence, Postemergence): 10%
- plant injury at 62 g/ha ([9]; pre-emergence, Preemergence): 5%
- plant injury at 125 g/ha ([9]; pre-emergence, Preemergence): 50%
- plant injury at 250 g/ha ([9]; pre-emergence, Preemergence): 65%
- Plant response rating ([10]; 31 g ai/ha): 70
- Plant response rating ([10]; 62 g ai/ha): 85
- Plant response rating ([10]; 125 g ai/ha): 85
- Plant response rating ([10]; 250 g ai/ha): 95
- Plant response rating: Surinam Grass ([11]; 16 g ai/ha): 0
- Plant response rating: Surinam Grass ([11]; 31 g ai/ha): 20
- Plant response rating: Surinam Grass ([11]; 62 g ai/ha): 65
- Plant response rating: Surinam Grass ([11]; 125 g ai/ha): 75
- Plant response rating: Surinam Grass ([11]; 250 g ai/ha): 75
